#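 These data come from cells grown in 96-well plates and exposed to compound for 48 hours at five concentrations. TGI marks complete inhibition of growth.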
# Tests used:
# Test in all cases: NCI tumour cell line growth inhibition, 48 h
# 786-0 renal = tested on: 786-0 renal
# A498 renal = tested on: A498 renal
# A549 NSCLC = tested on: A549 NSCLC
# ACHN renal = tested on: ACHN renal
# CCRF-CEM leukemia = tested on: CCRF-CEM leukemia
# COLO 205 colon = tested on: COLO 205 colon
# DLD-1 colon = tested on: DLD-1 colon
# DMS 114 small cell lung = tested on: DMS 114 small cell lung
# DMS 273 small cell lung = tested on: DMS 273 small cell lung
# EKVX NSCLC = tested on: EKVX NSCLC
# HCT-116 colon = tested on: HCT-116 colon
# HCT-15 colon = tested on: HCT-15 colon
# HL-60(TB) leukemia = tested on: HL-60(TB) leukemia
# HOP-18 NSCLC = tested on: HOP-18 NSCLC
# HOP-62 NSCLC = tested on: HOP-62 NSCLC
# HT29 colon = tested on: HT29 colon
# IGROV1 ovarian = tested on: IGROV1 ovarian
# K-562 leukemia = tested on: K-562 leukemia
# KM12 colon = tested on: KM12 colon
# KM20L2 colon = tested on: KM20L2 colon
# LOX IMVI melanoma = tested on: LOX IMVI melanoma
# LXFL 529 NSCLC = tested on: LXFL 529 NSCLC
# M14 melanoma = tested on: M14 melanoma
# M19-MEL melanoma = tested on: M19-MEL melanoma
# MALME-3M melanoma = tested on: MALME-3M melanoma
# MOLT-4 leukemia = tested on: MOLT-4 leukemia
# NCI-H226 lung = tested on: NCI-H226 lung
# NCI-H23 lung = tested on: NCI-H23 lung
# NCI-H522 lung = tested on: NCI-H522 lung
# OVCAR-3 ovarian = tested on: OVCAR-3 ovarian
# OVCAR-4 ovarian = tested on: OVCAR-4 ovarian
# OVCAR-8 ovarian = tested on: OVCAR-8 ovarian
# RPMI-8226 leukemia = tested on: RPMI-8226 leukemia
# RXF 393 renal = tested on: RXF 393 renal
# SF-268 CNS = tested on: SF-268 CNS
# SF-295 CNS = tested on: SF-295 CNS
# SF-539 CNS = tested on: SF-539 CNS
# SK-MEL-2 melanoma = tested on: SK-MEL-2 melanoma
# SK-MEL-28 melanoma = tested on: SK-MEL-28 melanoma
# SK-MEL-5 melanoma = tested on: SK-MEL-5 melanoma
# SK-OV-3 ovarian = tested on: SK-OV-3 ovarian
# SN12C renal = tested on: SN12C renal
# SNB-19 CNS = tested on: SNB-19 CNS
# SNB-75 CNS = tested on: SNB-75 CNS
# SNB-78 CNS = tested on: SNB-78 CNS
# SR leukemia = tested on: SR leukemia
# SW-620 colon = tested on: SW-620 colon
# U251 CNS = tested on: U251 CNS
# UACC-257 melanoma = tested on: UACC-257 melanoma
# UACC-62 melanoma = tested on: UACC-62 melanoma
# UO-31 renal = tested on: UO-31 renal
# XF 498 CNS = tested on: XF 498 CNS
# BT-549 breast = tested on: BT-549 breast
# CAKI-1 renal = tested on: CAKI-1 renal
# DU-145 prostate = tested on: DU-145 prostate
# HCC-2998 colon = tested on: HCC-2998 colon
# HOP-92 NSCLC = tested on: HOP-92 NSCLC
# HS 578T breast = tested on: HS 578T breast
# MCF7 breast = tested on: MCF7 breast
# MDA-MB-231 breast = tested on: MDA-MB-231 breast
# MDA-MB-435 = tested on: MDA-MB-435
# MDA-N = tested on: MDA-N
# NCI-H460 lung = tested on: NCI-H460 lung
# NCI/ADR-RES ovarian = tested on: NCI/ADR-RES ovarian
# OVCAR-5 ovarian = tested on: OVCAR-5 ovarian
# PC-3 prostate = tested on: PC-3 prostate
# T-47D breast = tested on: T-47D breast
# TK-10 renal = tested on: TK-10 renal
smiles,measurement,setting,value
CN1C(=O)N(c2nc3ccccc3[nH]2)C(C)(C)C1=O,TGI,786-0 renal,> 100 µM
same,TGI,A498 renal,> 100 µM
same,TGI,A549 NSCLC,> 100 µM
same,TGI,ACHN renal,> 100 µM
same,TGI,CCRF-CEM leukemia,> 100 µM
same,TGI,COLO 205 colon,> 100 µM
same,TGI,DLD-1 colon,> 100 µM
same,TGI,DMS 114 small cell lung,> 100 µM
same,TGI,DMS 273 small cell lung,> 100 µM
same,TGI,EKVX NSCLC,> 100 µM
same,TGI,HCT-116 colon,> 100 µM
same,TGI,HCT-15 colon,> 100 µM
same,TGI,HL-60(TB) leukemia,> 100 µM
same,TGI,HOP-18 NSCLC,> 100 µM
same,TGI,HOP-62 NSCLC,> 100 µM
same,TGI,HT29 colon,> 100 µM
same,TGI,IGROV1 ovarian,> 100 µM
same,TGI,K-562 leukemia,> 100 µM
same,TGI,KM12 colon,> 100 µM
same,TGI,KM20L2 colon,> 100 µM
same,TGI,LOX IMVI melanoma,> 100 µM
same,TGI,LXFL 529 NSCLC,> 100 µM
same,TGI,M14 melanoma,> 100 µM
same,TGI,M19-MEL melanoma,> 100 µM
same,TGI,MALME-3M melanoma,> 100 µM
same,TGI,MOLT-4 leukemia,> 100 µM
same,TGI,NCI-H226 lung,> 100 µM
same,TGI,NCI-H23 lung,> 100 µM
same,TGI,NCI-H522 lung,> 100 µM
same,TGI,OVCAR-3 ovarian,> 100 µM
same,TGI,OVCAR-4 ovarian,> 100 µM
same,TGI,OVCAR-8 ovarian,> 100 µM
same,TGI,RPMI-8226 leukemia,> 100 µM
same,TGI,RXF 393 renal,> 100 µM
same,TGI,SF-268 CNS,> 100 µM
same,TGI,SF-295 CNS,> 100 µM
same,TGI,SF-539 CNS,> 100 µM
same,TGI,SK-MEL-2 melanoma,> 100 µM
same,TGI,SK-MEL-28 melanoma,> 100 µM
same,TGI,SK-MEL-5 melanoma,> 100 µM
same,TGI,SK-OV-3 ovarian,> 100 µM
same,TGI,SN12C renal,> 100 µM
same,TGI,SNB-19 CNS,> 100 µM
same,TGI,SNB-75 CNS,> 100 µM
same,TGI,SNB-78 CNS,> 100 µM
same,TGI,SR leukemia,> 100 µM
same,TGI,SW-620 colon,> 100 µM
same,TGI,U251 CNS,> 100 µM
same,TGI,UACC-257 melanoma,> 100 µM
same,TGI,UACC-62 melanoma,> 100 µM
same,TGI,UO-31 renal,> 100 µM
same,TGI,XF 498 CNS,> 100 µM
COC(=O)/C(C#N)=C/c1cc(C(C)(C)C)c(O)c(C(C)(C)C)c1,TGI,786-0 renal,12.2 µM
same,TGI,A498 renal,8.37 µM
same,TGI,A549 NSCLC,> 100 µM
same,TGI,ACHN renal,> 31.3 µM
same,TGI,BT-549 breast,14 µM
same,TGI,CAKI-1 renal,> 27.4 µM
same,TGI,CCRF-CEM leukemia,9.69 µM
same,TGI,COLO 205 colon,2.78 µM
same,TGI,DU-145 prostate,> 100 µM
same,TGI,EKVX NSCLC,11.9 µM
same,TGI,HCC-2998 colon,7.8 µM
same,TGI,HCT-116 colon,10.5 µM
same,TGI,HCT-15 colon,13 µM
same,TGI,HL-60(TB) leukemia,4.47 µM
same,TGI,HOP-62 NSCLC,11.3 µM
same,TGI,HOP-92 NSCLC,12.4 µM
same,TGI,HS 578T breast,> 37 µM
same,TGI,HT29 colon,12.1 µM
same,TGI,IGROV1 ovarian,> 100 µM
same,TGI,K-562 leukemia,> 47.8 µM
same,TGI,KM12 colon,19.9 µM
same,TGI,LOX IMVI melanoma,17 µM
same,TGI,M14 melanoma,13.6 µM
same,TGI,MALME-3M melanoma,20.4 µM
same,TGI,MCF7 breast,15.7 µM
same,TGI,MDA-MB-231 breast,4.95 µM
same,TGI,MDA-MB-435,18.4 µM
same,TGI,MDA-N,13.3 µM
same,TGI,MOLT-4 leukemia,> 29.6 µM
same,TGI,NCI-H226 lung,9.6 µM
same,TGI,NCI-H23 lung,12.5 µM
same,TGI,NCI-H460 lung,5.75 µM
same,TGI,NCI-H522 lung,5.52 µM
same,TGI,NCI/ADR-RES ovarian,9.65 µM
same,TGI,OVCAR-3 ovarian,5.55 µM
same,TGI,OVCAR-4 ovarian,> 51.2 µM
same,TGI,OVCAR-5 ovarian,8.51 µM
same,TGI,OVCAR-8 ovarian,33.6 µM
same,TGI,PC-3 prostate,6.78 µM
same,TGI,RPMI-8226 leukemia,3.54 µM
same,TGI,RXF 393 renal,14.8 µM
same,TGI,SF-268 CNS,> 40.5 µM
same,TGI,SF-295 CNS,6.74 µM
same,TGI,SF-539 CNS,11 µM
same,TGI,SK-MEL-2 melanoma,4.92 µM
same,TGI,SK-MEL-28 melanoma,15.4 µM
same,TGI,SK-MEL-5 melanoma,3.39 µM
same,TGI,SK-OV-3 ovarian,8.04 µM
same,TGI,SN12C renal,8.17 µM
same,TGI,SNB-19 CNS,> 100 µM
same,TGI,SNB-75 CNS,17.1 µM
same,TGI,SR leukemia,11 µM
same,TGI,SW-620 colon,14.5 µM
same,TGI,T-47D breast,19.4 µM
same,TGI,TK-10 renal,12.9 µM
same,TGI,U251 CNS,11.5 µM
same,TGI,UACC-257 melanoma,6.72 µM
same,TGI,UACC-62 melanoma,15.1 µM
same,TGI,UO-31 renal,10 µM
Cc1ccc(S(=O)(=O)NNC(=O)Nc2ccc([N+](=O)[O-])cc2)cc1,TGI,786-0 renal,64.6 µM
same,TGI,A498 renal,> 100 µM
same,TGI,A549 NSCLC,> 100 µM
same,TGI,ACHN renal,> 100 µM
same,TGI,BT-549 breast,> 100 µM
same,TGI,CAKI-1 renal,> 100 µM
same,TGI,CCRF-CEM leukemia,> 100 µM
same,TGI,COLO 205 colon,> 100 µM
same,TGI,DU-145 prostate,> 100 µM
same,TGI,EKVX NSCLC,> 100 µM
same,TGI,HCC-2998 colon,> 100 µM
same,TGI,HCT-116 colon,> 100 µM
same,TGI,HCT-15 colon,> 100 µM
same,TGI,HL-60(TB) leukemia,> 100 µM
same,TGI,HOP-62 NSCLC,95.4 µM
same,TGI,HOP-92 NSCLC,> 100 µM
same,TGI,HS 578T breast,> 100 µM
same,TGI,HT29 colon,> 100 µM
same,TGI,IGROV1 ovarian,> 100 µM
same,TGI,K-562 leukemia,> 100 µM
same,TGI,KM12 colon,> 100 µM
same,TGI,LOX IMVI melanoma,> 100 µM
same,TGI,M14 melanoma,> 100 µM
same,TGI,MALME-3M melanoma,> 100 µM
same,TGI,MCF7 breast,> 100 µM
same,TGI,MDA-MB-231 breast,> 100 µM
same,TGI,MDA-MB-435,> 100 µM
same,TGI,MDA-N,> 100 µM
same,TGI,MOLT-4 leukemia,> 100 µM
same,TGI,NCI-H226 lung,> 100 µM
same,TGI,NCI-H23 lung,> 100 µM
same,TGI,NCI-H460 lung,87.6 µM
same,TGI,NCI-H522 lung,> 100 µM
same,TGI,NCI/ADR-RES ovarian,> 100 µM
same,TGI,OVCAR-3 ovarian,78.2 µM
same,TGI,OVCAR-4 ovarian,89.4 µM
same,TGI,OVCAR-5 ovarian,> 100 µM
same,TGI,OVCAR-8 ovarian,42.3 µM
same,TGI,PC-3 prostate,> 100 µM
same,TGI,RPMI-8226 leukemia,78.5 µM
same,TGI,RXF 393 renal,> 100 µM
same,TGI,SF-268 CNS,> 100 µM
same,TGI,SF-295 CNS,> 100 µM
same,TGI,SF-539 CNS,> 100 µM
same,TGI,SK-MEL-2 melanoma,> 100 µM
same,TGI,SK-MEL-28 melanoma,> 100 µM
same,TGI,SK-MEL-5 melanoma,> 100 µM
same,TGI,SN12C renal,> 100 µM
same,TGI,SNB-19 CNS,> 100 µM
same,TGI,SNB-75 CNS,> 100 µM
same,TGI,SR leukemia,> 100 µM
same,TGI,SW-620 colon,> 100 µM
same,TGI,T-47D breast,28.9 µM
same,TGI,TK-10 renal,> 100 µM
same,TGI,U251 CNS,> 100 µM
same,TGI,UACC-257 melanoma,> 100 µM
same,TGI,UACC-62 melanoma,98 µM
same,TGI,UO-31 renal,> 100 µM
